This note sets out measurements from patent publication US7723299B2, “Methods for treating rheumatoid arthritis using a CTLA-4 fusion protein” (ForHumanTech. Co., Ltd., priority 2005, dated 2010).

No end group written: not given here.

Experiment [1] relates to Jurkat T cells and primary human CD4^+ T cells. Description: IL-2 secretion of T cells activated with anti-CD3 and anti-CD28 mAbs, ELISA. It is filed as cell-based. The note with it: for inhibition of induction of IL-2 secretion: Jurkat or human CD4^+ T cells, fusion and control proteins. As to the method: (§1) Primary human CD4^+ T cells were purified from buffy coats from healthy donors. PBMC were isolated by density gradient centrifugation using Histopaque (Sigma). The lymphocyte layer was collected and CD4^+ T cells were isolated by MACS column using CD4 microbeads (Miltenyi Biotec) (Busch R., et al., J. Immunol. Methods 286:97-109 (2004)).
(§2) One million Jurkat (E6.1) cells or primary human CD4^+ T cells were treated with Hph-1-ctCTLA-4 for 1 hour, then washed with PBS and incubated with 0.25 μg of anti-CD28 mAb (Pharmingen) for 20 min at 4° C. The anti-CD28 mAb bound cells were further activated in 0.05 μg of anti-CD3 mAb (Pharmingen) coated plates for 20 hours. Each cell was stained with anti-CD69-PE and anti-CD25-FITC antibodies (Pharmingen) and analyzed by FACS calibur (Becton Dickinson). The supernatant in each well was analyzed for the level of secreted IL-2 by ELISA (R&D system).
(§3) To examine whether the delivered Hph-1-ctCTLA-4 can inhibit T cell activation, Jurkat T cells or primary human CD4^+ T cells were treated with Hph-1-ctCTLA-4 and stimulated with anti-CD28 mAb and plate-bound anti-CD3 mAb. The levels of activation-induced surface proteins such as CD69 and CD25 were analyzed by FACS.

Experiment [2] relates to Jurkat T cells or primary human CD4^+ T cells. The experiment in a line: Induction of CD69 and CD25 on activated T cells, FACS. It is filed as cell-based. Particulars: anti-CD28 mAb and plate-bound anti-CD3 mAb stimulation. As for the experimental part: as §1, §2, §3
The test system of the next experiment is OVA-challenged mice. Description: OVA-induced allergic asthma model. The note with it: for histological examination of lung tissues, infiltration of inflammatory cells / infiltration of inflammatory cells (eosinophils, macrophages, neutrophils, lymphocytes) into BAL fluid: OVA challenge; for infiltration of inflammatory cells (eosinophils, macrophages, neutrophils, lymphocytes) into BAL fluid: intra-nasal pretreatment.

The next experiment has as its system Zap70, ERK and JNK. Description: Tyrosine phosphorylation of signaling mediators after TcR stimulation. In kind it is cell-based. The note with it: T cells.
Another experiment relates to Jurkat T cells. Description: Transduction efficiency and kinetics of Hph-1-ctCTLA-4, intracellular staining. In kind it is cell-based. As for the experimental part: Transduction efficiency of Hph-1-HA-ctCTLA-4 was analyzed by intracellular staining using HA-fluorescein mAb (Cell Signaling). After cells were permeablized by cytofix/cytoperm solution (Pharmingen) and incubated with HA-fluorescein mAb at 4° C. for 30 min. Intracellular fluorescence was determined by FACS calibur (Becton Dickinson).
By taking advantage of the capacity of Hph-1-PTD to deliver a large target protein into the cells or organs in vivo through nasal airway, a fusion protein of Hph-1-PTD and the cytoplasmic domain of CTLA-4 (Hph-1-PTD-ctCTLA-4) was constructed as described in FIG. 3A, to be used for local suppression of the immune response in an asthma model. We constructed control proteins comprised of ctCTLA-4 without Hph-1-PTD and Hph-1-ctCTLA-4YF, in which two tyrosine residues essential for its negative function were mutated into phenylalanine. The transduction efficiency of Hph-1-ctCTLA-4 was tested in Jurkat T cells, which are known not to express CTLA-4 on the surface. These cells were treated with different concentrations of Hph-1-ctCTLA-4 for different periods of time, and both the transduction efficiency and kinetics were analyzed by intracellular staining.

Another experiment relates to Jurkat (E6.1) cells. Description: Transduction efficiency and kinetics of Hph-1-β-gal, western blot. In kind it is cell-based. As for the experimental part: (§4) After the Hph-1-β-gal construct was transduced into each cell line for 1 hour, the cells were washed with PBS and fixed immediately. Then, the fixed cells were incubated with X-Gal solution for 1-3 hours at 37° C. The mice tissue samples from the liver, kidney, heart, lung, spleen and brain were isolated at 12 hours after i.p. injection of Hph-1-β-gal, sectioned (in 10- and 50-μm sections), and assayed using an X-Gal staining kit (Roche) (Schwarze S. R., et al., Science 285:1569-1572 (1999)). The image was captured by fluorescence microscopy (Nikon). Transduction capacity of Hph-1-β-gal was also analyzed by western blot analysis. Equal numbers of cells were solubilized in SDS-PAGE sample buffer and the proteins were resolved on a 12% gel, and blotted onto PVDF, which was probed with monoclonal antibody (1:1,000) to β-gal (Cell Signaling). Bound antibody was detected using horseradish peroxidase-conjugated antibody to mouse IgG (1:5,000), followed by enhanced chemiluminescence (Pierce). To monitor the localization of the Hph-1-PTD-eGFP fusion protein, Hela cells were incubated with 10 μM of Hph-1-eGFP fusion protein for 30 min and the fluorescence of eGFP was analyzed by confocal microscopy (Bio Rad).
Using the purified Hph-1-β-gal fusion protein or the control β-gal protein, transduction efficiency was analyzed by western blot analysis in Jurkat (E6.1) cells. […] (FIG. 11B).
(In general: In western blotting, separated proteins are transferred to a membrane and probed.)

The subject of experiment [3] is HeLa, HepG2, HaCat and NIH3T3. Description: Transduction efficiency in various cell lines, X-gal staining. The note with it: 1 hour incubation with Hph-1-β-gal. It is filed as cell-based. As to the method:
FIG. 1C are photographs of transduction efficiency of Hph-1 in several cell lines, including HeLa, HepG2, HaCat and NIH3T3. After 1 hour incubation with Hph-1-β-gal, cells were fixed and stained with X-gal solution. The images were then captured by fluorescence microscopy.
as §4, with “Equal numbers of cells were solubilized in SDS-PAGE sample buffer and the proteins were resolved on a 12% gel, and blotted onto PVDF, which was probed with monoclonal antibody (1:1,000) to β-gal (Cell Signaling).” left out, “Rad). […]” for “Rad).”

The mark [4] stands for this setting: single pretreatment, 25 μg, OVA-challenged mice.

In the case of “Hph-1-ctCTLA-4YF: control protein in which two tyrosine residues essential for its negative function were mutated into phenylalanine (KMLKKRSPLTTGVFVKMPPTEPECEKQFQPFFIPIN; ctCTLA-4YF) [reference compound]”, in experiment [1], the “inhibition of induction of IL-2 secretion” value is “neither ctCTLA-4 without Hph-1-PTD nor Hph-1-ctCTLA-4YF blocked IL-2 secretion”. Further, the “induction of surface marker proteins CD69 and CD25” value in experiment [2] is given as “did not show any inhibition”. In addition, the “histological examination of lung tissues, infiltration of inflammatory cells” value in the experiment with OVA-challenged mice is recorded as “not observed”. Moreover, the “infiltration of inflammatory cells (eosinophils, macrophages, neutrophils, lymphocytes) into BAL fluid” value in the experiment on OVA-challenged mice (25 μg) is given as “did not show these inhibitory effects”. Besides, the “production of eotaxin and Th2 type cytokines (IL-5, IL-6, IL-13) in BAL fluid” value in the experiment on OVA-challenged mice (setting [4]) is on record as “no inhibition”.
Take “Hph-1-ctCTLA-4: fusion protein of Hph-1-PTD and the cytoplasmic domain of CTLA-4 (KMLKKRSPLTTGVYVKMPPTEPECEKQFQPYFIPIN; ctCTLA-4)”: the “induction of tyrosine phosphorylation of Zap70, ERK and JNK” value in the experiment on Zap70, ERK and JNK is recorded as “markedly inhibited”. The “time to maximal levels of intracellular protein” value with Jurkat T cells (after incubation) is listed as 60 min. Also, the “transduction into the cells” value with Jurkat T cells (intracellular staining) was “concentration-dependent”. Also, in experiment [1], the “concentration that effectively blocks T cell activation” value is 10 pM and the “inhibition of induction of IL-2 secretion” value is recorded as “concentration dependent manner at picomolar range”. The “level of inhibition of IL-2 secretion compared with CsA” value in experiment [1] (10 pM of Hph-1-ctCTLA-4 versus CsA) was “better or equivalent”. The “fold lower concentration than CsA for comparable inhibition of T cell activation” value in experiment [1] (versus CsA) was determined as 1000 fold. Also, the “induction of surface marker proteins CD69 and CD25” value in experiment [2] is “significantly inhibited”. The “histological examination of lung tissues, infiltration of inflammatory cells” value in the experiment with OVA-challenged mice is “Inflammatory cells could not infiltrate through the mucus”. The “inflammatory index in the lung” value in the experiment on OVA-challenged mice (OVA-challenged mice, pretreated) is recorded as “significantly reduced”. Besides, in the experiment on OVA-challenged mice (25 μg), the “infiltration of inflammatory cells (eosinophils, macrophages, neutrophils, lymphocytes) into BAL fluid” value is on record as “prevent against the infiltration of these inflammatory cells into the BAL fluid to the levels observed in the PBS-challenged control group”. The “OVA-induced airway hyper-responsiveness to methacholine” value with OVA-challenged mice (nebulized methacholine) is given as “substantially attenuated”. Further, in the experiment on OVA-challenged mice (single administration of about 1 mg/kg through the nasal route before the first OVA challenge), the “neutrophil and macrophage infiltration” value is “effectively inhibited”. Also, in the experiment with OVA-challenged mice (setting [4]), the “generation of IFN-γ and TGF-β in BAL fluid” value is on record as “not found to affect”; the “production of eotaxin and Th2 type cytokines (IL-5, IL-6, IL-13) in BAL fluid” value is “significantly inhibited”.
Consider “Hph-1-PTD: protein transduction domain of 11 amino acids (YARVRRRGPRR) from human transcriptional factor Hph-1; tested as β-gal fusion (also: tested as β-gal fusion; listed as Homo sapiens)”, for which the “reduction of transduction efficiency at 4° C.” value in the experiment with Jurkat (E6.1) cells (4° C.) was 40%. The “concentration dependence of protein transduction” value in the experiment with Jurkat (E6.1) cells (Jurkat (E6.1) cells) was “concentration-dependent manner”. Further, in experiment [3], the “cells positive for β-gal enzyme activity” value is on record as roughly 100%.
